How the values were obtained:
[1] = molecular target: T1, catalase (Aspergillus niger, UniProt P55303); assay: Catalase promoted hydrogen peroxide decomposition in phosphate buffer pH 7.0 (Example 6); type: biochemical, A. niger; settings: 526 ppm product
T1 construct: purchased Sigma Aldrich C-3515; host or cells: A. niger derived
Experimental: Hydrogen peroxide solutions containing 470 ppm active peroxide in sterile Butterfield's phosphate buffer (pH=7.0) were treated with 1.2 units of catalase (A. niger available from Sigma Aldrich of St. Louis, Mo. (C-3515)) alone or with 263 or 526 ppm of Dantogard® 2000, available from Lonza Inc. of Fair Lawn, N.J., or 526 ppm of an aqueous 49% glutaraldehyde solution. Dantogard® 2000 is a 65% aqueous mixture of DMDMH, MMDMH and DMH having a minimal free formaldehyde concentration. The peroxide decomposition rate was monitored during the decrease in peroxide concentration from 390 to 350 ppm by ultraviolet absorbance at 240 nm. The temperature was 23° C.

[2] = H2O2 stabilization in papermaking process water (Example 1); settings: for H2O2 residual: 45° C.
Experimental: Process waters from a papermaking facility which uses recycled fibers were collected during a bleaching stage and allowed to stand for 2 hours to achieve total depletion of the hydrogen peroxide in the process waters.
Into five separate Pyrex beakers were placed 400 ml of the process water. One was retained as a control. 150 and 300 ppm of an aqueous solution containing 40% by weight of 1,3-bis(hydroxymethyl)-5,5-dimethylhydantoin (DMDMH) (Dantogard®) were added to two beakers for a total concentration of 60 ppm and 120 ppm of DMDMH, respectively. On an equivalent aldehyde basis, this corresponds to 0.65 mEq/l and 1.30 mEq/l, respectively. 150 and 300 ppm of an aqueous solution containing […] of glutaraldehyde were added to the remaining two beakers for a total concentration of 83 ppm and 166 ppm of glutaraldehyde, respectively. On an equivalent aldehyde basis, this corresponds to 1.66 mEq/l and 3.32 mEq/l, respectively. The samples were placed in a controlled water bath at 45° C. and stirred with a magnetic stirrer set on slow agitation.
To all the test samples, a sufficient volume of a 1% (by weight) hydrogen peroxide (H2O2) aqueous solution was added to achieve a concentration of 20-25 ppm of hydrogen peroxide in the samples. At regular time intervals, over a 45 minute period, aliquots were removed and analyzed for peroxide residual (i.e. the concentration of hydrogen peroxide) using a thiosulfate titration kit (HACH Test Kit, Model HYP-1, available from Hach Company of Loveland, Colo.). The results, shown in Table 1, correlate to the amount of peroxide present at the specific time interval, expressed as ppm of hydrogen peroxide.

T1 sequence (P55303 whole entry): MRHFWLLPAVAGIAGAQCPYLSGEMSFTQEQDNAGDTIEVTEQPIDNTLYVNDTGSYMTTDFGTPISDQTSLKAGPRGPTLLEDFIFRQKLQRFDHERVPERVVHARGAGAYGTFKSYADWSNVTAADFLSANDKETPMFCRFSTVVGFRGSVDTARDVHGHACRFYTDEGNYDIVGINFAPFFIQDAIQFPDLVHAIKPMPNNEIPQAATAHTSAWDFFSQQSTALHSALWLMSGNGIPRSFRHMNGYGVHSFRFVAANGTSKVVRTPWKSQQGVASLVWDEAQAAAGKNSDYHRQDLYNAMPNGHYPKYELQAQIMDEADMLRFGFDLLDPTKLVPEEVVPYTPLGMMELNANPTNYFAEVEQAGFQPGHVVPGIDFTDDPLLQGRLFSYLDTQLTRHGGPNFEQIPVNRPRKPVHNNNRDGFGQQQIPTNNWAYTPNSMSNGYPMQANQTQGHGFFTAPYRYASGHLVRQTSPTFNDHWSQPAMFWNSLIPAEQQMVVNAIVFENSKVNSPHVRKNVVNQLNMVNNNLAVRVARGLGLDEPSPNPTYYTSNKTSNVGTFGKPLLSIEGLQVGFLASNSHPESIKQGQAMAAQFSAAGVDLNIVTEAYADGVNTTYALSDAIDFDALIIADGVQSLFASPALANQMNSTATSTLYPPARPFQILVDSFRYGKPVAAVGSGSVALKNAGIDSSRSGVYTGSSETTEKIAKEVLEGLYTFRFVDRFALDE

With `O=CCCCC=O` [Glutaraldehyde, glutaraldehyde] the “Peroxide Decomposition Rate” value ([1]; 1.2 units catalase, pH 7.0, 23° C., peroxide 390 to 350 ppm) was 0.230 ppm/sec, the “Normalized Decomposition Rate” value ([1]; control = 1.00) was 1.0 and the H2O2 residual ([2]; 83 ppm glutaraldehyde, 0 min) was 25 ppm H2O2. For the same compound, the H2O2 residual ([2]; 83 ppm glutaraldehyde, 10 min) was 24 ppm H2O2, the H2O2 residual ([2]; 83 ppm glutaraldehyde, 15 min) was 22 ppm H2O2 and the H2O2 residual ([2]; 83 ppm glutaraldehyde, 20 min) was 20 ppm H2O2. For the same compound, the H2O2 residual ([2]; 83 ppm glutaraldehyde, 30 min) was 16 ppm H2O2, the H2O2 residual ([2]; 83 ppm glutaraldehyde, 40 min) was 14 ppm H2O2 and the H2O2 residual ([2]; 83 ppm glutaraldehyde, 45 min) was 12 ppm H2O2. For the same compound, the H2O2 residual ([2]; 166 ppm glutaraldehyde, 0 min) was 26 ppm H2O2, the H2O2 residual ([2]; 166 ppm glutaraldehyde, 10 min) was 24 ppm H2O2 and the H2O2 residual ([2]; 166 ppm glutaraldehyde, 15 min) was 21 ppm H2O2. The H2O2 residual ([2]; 166 ppm glutaraldehyde, 20 min) was 19 ppm H2O2, the H2O2 residual ([2]; 166 ppm glutaraldehyde, 30 min) was 17 ppm H2O2 and the H2O2 residual ([2]; 166 ppm glutaraldehyde, 40 min) was 15 ppm H2O2. The H2O2 residual ([2]; 166 ppm glutaraldehyde, 45 min) was 13 ppm H2O2.

Compound `CC1(C)C(=O)N(CO)C(=O)N1CO` [DMDMH, 1,3-bis(hydroxymethyl)-5,5-dimethylhydantoin] has an H2O2 residual ([2]; 60 ppm DMDMH, 0 min) of 25 ppm H2O2, an H2O2 residual ([2]; 60 ppm DMDMH, 10 min) of 24 ppm H2O2 and an H2O2 residual ([2]; 60 ppm DMDMH, 15 min) of 23 ppm H2O2. The H2O2 residual ([2]; 60 ppm DMDMH, 20 min) was 22 ppm H2O2, the H2O2 residual ([2]; 60 ppm DMDMH, 30 min) was 18 ppm H2O2 and the H2O2 residual ([2]; 60 ppm DMDMH, 40 min) was 16 ppm H2O2. For the same compound, the H2O2 residual ([2]; 60 ppm DMDMH, 45 min) was 15 ppm H2O2, the H2O2 residual ([2]; 120 ppm DMDMH, 0 min) was 26 ppm H2O2 and the H2O2 residual ([2]; 120 ppm DMDMH, 10 min) was 24 ppm H2O2. For the same compound, the H2O2 residual ([2]; 120 ppm DMDMH, 15 min) was 23 ppm H2O2, the H2O2 residual ([2]; 120 ppm DMDMH, 20 min) was 20 ppm H2O2 and the H2O2 residual ([2]; 120 ppm DMDMH, 30 min) was 18 ppm H2O2. For the same compound, the H2O2 residual ([2]; 120 ppm DMDMH, 40 min) was 17 ppm H2O2, the H2O2 residual ([2]; 120 ppm DMDMH, 45 min) was 16 ppm H2O2 and the “peroxide stabilization compared to glutaraldehyde” value ([2]; Table 1 comparison, ppm product basis) was “superior peroxide stabilization compared to glutaraldehyde”.
